Read-outs that look alike come from different tables or passages of the source.
Columns and labels:
human 11β-HSD1 = biological target: T1, human 11β-HSD1 (Homo sapiens, UniProt P28845); test: Enzyme inhibitory activity, human 11β-HSD1 (lysate of stably expressing HEK293 cells, cortisol by competitive ELISA); type: biochemical; conditions: human 11β-HSD1, cell lysate, 37° C. for 1 hour, read-out: h HSD1 in vitro assay (IC50 uM)
T1 construct: The obtained PCR products of about 0.9 kbp, 1.2 kbp, and 0.9 kbp were subcloned into an expression vector pcDNA3.1+/Zeo; expressed in transfected cells
T1 sequence (P28845 whole entry): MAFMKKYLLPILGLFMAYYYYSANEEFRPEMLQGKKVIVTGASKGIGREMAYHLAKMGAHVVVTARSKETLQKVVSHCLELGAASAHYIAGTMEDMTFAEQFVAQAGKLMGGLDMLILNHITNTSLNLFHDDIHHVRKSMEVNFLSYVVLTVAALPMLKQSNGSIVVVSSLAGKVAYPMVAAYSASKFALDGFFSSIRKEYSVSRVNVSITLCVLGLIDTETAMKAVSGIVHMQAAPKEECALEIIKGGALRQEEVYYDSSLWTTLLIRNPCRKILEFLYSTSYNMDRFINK
Protocol: (§1) 1. Human 11β-HSD1-, Human 11β-HSD2- and Mouse 11β-HSD1-Gene Clonings and Establishment of Stably Expressing Cells
(§2) Human 11β-HSD1-, human 11β-HSD2-, and mouse 11β-HSD1-gene clonings were conducted using as a template a reverse transcription product of human-liver RNA, human-kidney RNA (CELL APPLICATIONS), and mouse-kidney RNA respectively, by means of PCR cloning with reference to nucleotide sequences of Genbank Accession Nos. NM_005525, NM_000196, and NM_008288. The obtained PCR products of about 0.9 kbp, 1.2 kbp, and 0.9 kbp were subcloned into an expression vector pcDNA3.1+/Zeo (Invitrogen).
(§3) Human 11β-HSD1- and human 11β-HSD2-expressing vectors were transfected into human kidney-derived cell line, HEK293 cells, using a transfection reagent, jet PEI (Funakoshi). Mouse 11β-HSD1 was transfected to Chinese hamster ovary-derived cell line, CHO-K1 cells. Selection was conducted with 200-400 μg/mL of zeocine (Invitrogen) to provide stably expressing-cell clones. The stably expressing cells were suspended in buffer solution A (20 mmol/L Tris-HCl, pH 7.4, 250 mmol/L sucrose, 1 mmol/L EGTA, 1 mmol/L EDTA, 1 mmol/L MgCl2), sonicated, and then stored at −80° C.
(§4) 2. Assay of Enzyme Inhibitory Activity
(§5) An enzymatic reaction was conducted using a polystyrene 96-well plate. Each well was added with 1 μL of a test agent dissolved in DMSO and then diluted (0.003 to 3 mmol/L), and further added with 10 μL of cell lysate diluted to a concentration of 0.1 mg/mL to 0.4 mg/mL. Next, 90 μL of buffer solution A containing substrate (100 nmol/L cortisone or cortisol) and coenzyme (400 μmol/L NADPH or NAD+) was added and the mixture was incubated at 37° C. for 1 hour. The enzymatic reaction was stopped by treating at 95° C. for 3 minutes. Cortisol that was present in the reaction solution was determined by a competitive ELISA shown below.
(§6) Anti-rabbit IgG antibody (Chemi-con) diluted to 2 μg/mL with carbonate buffer solution (pH 9.6) was added in 100 μL each to a 96-well immuno plate (Nunc) and immobilized by an incubation at 4° C. overnight. 50 μL of enzymatic reaction solution was put onto the plates, and further, anti-cortisol antibody (Cosmo Bio) and HRP-labeled cortisol (Cosmo Bio), diluted with buffer solution B (25 mmol/L Tris-HCl pH 7.4, 137 mmol/L NaCl, 2.68 mmol/L KCl), were added in 50 μL respectively and incubated at 4° C. overnight. After washed three times with buffer solution B containing 0.05% Tween 20, the plates were allowed to develop color by adding 100 μL of color reagent, TMB (Moss). The color reaction was stopped by 25 μL of 1 mol/L sulfuric acid and the absorbance was determined at 450 nm with a microplate reader (Molecular Device, VersaMax).
(§7) The values of human 11β-HSD1, human 11β-HSD2, and mouse 11β-HSD1 activities were subtracted from 100, and the resultant values were regarded as the respective 11β-HSD inhibition rates of example compounds. […] The comparison of human 11β-HSD1 and human 11β-HSD2 inhibiting activities is shown in Table 1, and the comparison of human 11β-HSD1 and mouse 11β-HSD1 inhibiting activities is shown in Table 2.

mouse 11β-HSD1 = biological target: T2, mouse 11β-HSD1 (Mus musculus, UniProt P50172); test: Enzyme inhibitory activity, mouse 11β-HSD1 (lysate of stably expressing CHO-K1 cells, cortisol by competitive ELISA); type: biochemical; conditions: Table 2; mouse 11β-HSD1, cell lysate, 37° C. for 1 hour; read-out: m HSD1 in vitro assay (IC50 uM)
T2 construct: The obtained PCR products of about 0.9 kbp, 1.2 kbp, and 0.9 kbp were subcloned into an expression vector pcDNA3.1+/Zeo; expressed in transfected cells
T2 sequence (P50172 whole entry): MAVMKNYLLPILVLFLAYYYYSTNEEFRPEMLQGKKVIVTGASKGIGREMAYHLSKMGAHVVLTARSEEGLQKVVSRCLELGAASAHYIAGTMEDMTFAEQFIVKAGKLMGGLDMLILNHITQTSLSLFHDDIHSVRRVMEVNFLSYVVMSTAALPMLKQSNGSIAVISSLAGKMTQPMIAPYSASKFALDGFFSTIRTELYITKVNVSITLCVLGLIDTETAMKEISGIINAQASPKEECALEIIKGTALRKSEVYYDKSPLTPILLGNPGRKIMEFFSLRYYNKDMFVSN
Protocol: as §1, §2, §3, §4, §5, §6, §7

Structure (SMILES) | IC50 (human 11β-HSD1; Table 2) [µM] | IC50 (mouse 11β-HSD1) [µM] | IC50 (human 11β-HSD1; Table 1) [µM]
CC1(C)C(=O)N(C2C3CC4CC(C3)CC2C4)N1Cc1cccc(Cl)c1 (centres unmarked) [Example 28, 1-(3-chlorobenzyl)-4,4-dimethyl-2-(adamantan-2-yl)-1,2-diazetidin-3-one] | 0.44 | 0.073 | 
CC1(C)C(=O)N(C2C3CC4CC(C3)CC2C4)N1Cc1cccc([N+](=O)[O-])c1 (centres unmarked) [Example 29, 4,4-dimethyl-1-(3-nitrobenzyl)-2-(adamantan-2-yl)-1,2-diazetidin-3-one] | 0.6 | 0.37 | 
Cc1ccccc1CN1N(C2C3CC4CC(C3)CC2C4)C(=O)C1(C)C (centres unmarked) [Example 30, 4,4-dimethyl-1-(2-methylbenzyl)-2-(adamantan-2-yl)-1,2-diazetidin-3-one] | 0.047 | 0.1 | 
CC1(C)C(=O)N(C2C3CC4CC(C3)CC2C4)N1Cc1ccc([N+](=O)[O-])cc1 (centres unmarked) [Example 31, 4,4-dimethyl-1-(4-nitrobenzyl)-2-(adamantan-2-yl)-1,2-diazetidin-3-one] | 0.96 | 0.3 | 
Cc1cccc(CN2N(C3C4CC5CC(C4)CC3C5)C(=O)C2(C)C)c1 (centres unmarked) [Example 32, 4,4-dimethyl-1-(3-methylbenzyl)-2-(adamantan-2-yl)-1,2-diazetidin-3-one] | 0.25 | 0.054 | 
CC1(C)C(=O)N(C2C3CC4CC(C3)CC2C4)N1Cc1cccc(Br)c1 (centres unmarked) [Example 33, 1-(3-bromobenzyl)-4,4-dimethyl-2-(adamantan-2-yl)-1,2-diazetidin-3-one] | 0.38 | 0.086 | 
CC1(C)C(=O)N(C2C3CC4CC(C3)CC2C4)N1Cc1cccc(I)c1 (centres unmarked) [Example 35, 1-(3-iodobenzyl)-4,4-dimethyl-2-(adamantan-2-yl)-1,2-diazetidin-3-one] | 0.44 | 0.15 | 
CC1(C)C(=O)N(C2C3CC4CC(C3)CC2C4)N1Cc1ccc(C(F)(F)F)cc1 (centres unmarked) [Example 36, 4,4-dimethyl-2-(adamantan-2-yl)-1-[4-(trifluoromethyl)benzyl]-1,2-diazetidin-3-one] | 0.69 | 0.21 | 
CC1(C)C(=O)N(C2C3CC4CC(C3)CC2C4)N1Cc1ccccc1F (centres unmarked) [Example 38, 1-(2-fluorobenzyl)-4,4-dimethyl-2-(adamantan-2-yl)-1,2-diazetidin-3-one] | 0.26 | 0.1 | 
CC1(C)C(=O)N(C2C3CC4CC(C3)CC2C4)N1Cc1ccccc1C(F)(F)F (centres unmarked) [Example 42, 4,4-dimethyl-2-(adamantan-2-yl)-1-[2-(trifluoromethyl)benzyl]-1,2-diazetidin-3-one] |  | 0.24 | 0.025
CC1(C)C(=O)N(C2C3CC4CC(C3)CC2C4)N1Cc1cccc(Cl)c1Cl (centres unmarked) [Example 43, 1-(2,3-dichlorobenzyl)-4,4-dimethyl-2-(adamantan-2-yl)-1,2-diazetidin-3-one] | 0.072 | 0.074 | 
CC1(C)C(=O)N(C2C3CC4CC(C3)CC2C4)N1Cc1cc(Cl)ccc1Cl (centres unmarked) [Example 44, 1-(2,5-dichlorobenzyl)-4,4-dimethyl-2-(adamantan-2-yl)-1,2-diazetidin-3-one] | 0.044 | 0.073 | 
CC1(C)C(=O)N(C2C3CC4CC(C3)CC2C4)N1Cc1ccc(F)cc1Cl (centres unmarked) [Example 45, 1-(2-chloro-4-fluorobenzyl)-4,4-dimethyl-2-(adamantan-2-yl)-1,2-diazetidin-3-one] | 0.079 | 0.14 | 
CC1(C)C(=O)N(C2C3CC4CC(C3)CC2C4)N1Cc1c(F)cccc1Cl (centres unmarked) [Example 46, 1-(2-chloro-6-fluorobenzyl)-4,4-dimethyl-2-(adamantan-2-yl)-1,2-diazetidin-3-one] | 0.23 | 0.45 | 
CC1(C)C(=O)N(C2C3CC4CC(C3)CC2C4)N1Cc1ccccc1[N+](=O)[O-] (centres unmarked) [Example 47, 4,4-dimethyl-1-(2-nitrobenzyl)-2-(adamantan-2-yl)-1,2-diazetidin-3-one] | 0.2 | 0.58 | 
CC1(C)C(=O)N(C2C3CC4CC(C3)CC2C4)N1Cc1ccccc1-c1ccccc1 (centres unmarked) [Example 49, 1-(biphenyl-2-ylmethyl)-4,4-dimethyl-2-(adamantan-2-yl)-1,2-diazetidin-3-one] |  | 0.31 | 0.8

— patent US8252781B2, “1,2-diazetidin-3-one derivatives and drugs containing same” (Kowa Company, Ltd., priority 2008, dated 2012)
